Several values for one entry are separate records, joined by “and”; a condition that tells them apart may be missing. Equal values may be shown once.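 Step 1: Grow cells in 96-well plates. Step 2: Expose to compound for 48 hours at 5 concentrations. Step 3: Interpolate endpoints linearly; if unreached, use highest concentration. The concentration for 50% growth inhibition is given as GI50. Definition used: TGI = concentration required for complete inhibition of growth.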
How the values were obtained:
Experiment in all cases: growth of human tumour cells (NCI), 48 h
RXF 393 renal = system: RXF 393 renal
HCT-116 colon = system: HCT-116 colon
SF-539 CNS = system: SF-539 CNS
EKVX NSCLC = system: EKVX NSCLC
T-47D breast = system: T-47D breast
NCI-H226 lung = system: NCI-H226 lung
SF-295 CNS = system: SF-295 CNS
OVCAR-4 ovarian = system: OVCAR-4 ovarian
BT-549 breast = system: BT-549 breast
U251 CNS = system: U251 CNS

| Compound | TGI (RXF 393 renal) [µM] | TGI (HCT-116 colon) [µM] | TGI (SF-539 CNS) [µM] | TGI (EKVX NSCLC) | TGI (T-47D breast) | TGI (NCI-H226 lung) [µM] | TGI (SF-295 CNS) [µM] | TGI (OVCAR-4 ovarian) | TGI (BT-549 breast) [µM] | TGI (U251 CNS) [µM] | GI50 (RXF 393 renal) [µM] | GI50 (HCT-116 colon) | GI50 (SF-539 CNS) | GI50 (EKVX NSCLC) | GI50 (T-47D breast) | GI50 (NCI-H226 lung) [µM] | GI50 (SF-295 CNS) | GI50 (OVCAR-4 ovarian) | GI50 (BT-549 breast) | GI50 (U251 CNS) |
| --- | --- | --- | --- | --- | --- | --- | --- | --- | --- | --- | --- | --- | --- | --- | --- | --- | --- | --- | --- | --- |
| COCOc1ccc(C2(O)Oc3cc(OCOC)ccc3C2C)c(O)c1 (stereo not given) | 31.1 | 27.6 | 29.1 | 28.2 µM | 25.8 µM | 31.2 | 29 | 32.1 µM | 28.2 | 28.2 |  |  |  |  |  |  |  |  |  |  |
| CC/C=C/C/C=C/C/C=C/C/C=C/C/C=C/C/C=C/CCC(=O)Nc1ccn([C@@H]2O[C@H](CO)[C@@H](O)C2(F)F)c(=O)n1 | 18.3 | 29.8 | 5.71 | > 58.9 µM | 54.4 µM | 12.1 | 19.8 | 65.5 µM | 19.8 | 18.2 | 0.169 | 0.0873 µM | 0.0425 µM | 6.14 µM | 0.174 µM | 0.228 | 0.11 µM | 17.5 µM | 0.681 µM | 0.0331 µM |
| CCCCCCCCCCCCOC1C(C(CC(=O)NCCN2CCCC2)NS(=O)(=O)c2cc(Cl)cc(Cl)c2)OC2OC(C)(C)OC21 (stereo not given) | 4.72 | 4.78 | 3.48 | 3.49 µM | 4.46 µM and 2.04 µM | 4.04 | 4.69 | 3.7 µM and 3.51 µM | 3.24 | 3.58 | 2.2 | 1.85 µM | 2.01 µM | 1.87 µM |  | 1.86 | 1.9 µM | 2 µM and 1.7 µM | 1.79 µM | 1.92 µM |
| Cc1cc(C)n(-c2nnc3n2N=C(c2ccc(-c4ccccc4)cc2)CS3)n1 | 6.51 | > 100 | 5.2 |  | > 100 µM | > 100 | 7.63 | > 100 µM | > 100 | > 100 | 2.08 | 3.39 µM | 2.15 µM |  | 4.05 µM | 4.24 | 2.64 µM | 4.12 µM | 3.69 µM | 3.4 µM |
| O=C1CSC(c2ccc(-c3nc4ccccc4s3)cc2)=N1 | > 100 | > 100 |  | 13.5 µM | > 100 µM |  | > 100 | > 100 µM | 76.8 | > 100 | 28.9 | 24.7 µM |  | 1.81 µM | 90.9 µM |  | 20.9 µM | 41.1 µM | 36.2 µM | 28 µM |
| Clc1ccc(N=CNc2ccc(-c3nc4ccccc4o3)cc2)cc1 | 80.6 | > 100 | 45.7 | 2.84 µM | 52.1 µM | > 100 | 45.9 |  | 43.6 | 91.3 | 25.8 | > 100 µM | 14.8 µM | 0.241 µM | 13.1 µM | 27.2 | 19.4 µM |  | 18.7 µM | 23.4 µM |
| CCN(CC)c1cc2oc3cc(N)cc(=N)c-3nc2cc1C | 26.9 | 5.69 | 14.2 | 54.6 µM | 43.8 µM | 42.8 | 5.19 |  | 27.4 | 14.7 | 13.1 | 1.83 µM | 3.44 µM | 4.02 µM | 5.04 µM | 3.39 | 1.85 µM |  | 10.6 µM | 3.13 µM |
| C=CCN1CC2CON(C(=O)C(OC)(c3ccccc3)C(F)(F)F)C2C1C(C)C (stereo not given) |  |  |  | 99.1 µg/mL |  |  |  |  |  |  |  | 24.2 µg/mL | 66.5 µg/mL | 33.6 µg/mL | 34.5 µg/mL |  | 35.7 µg/mL | 67.1 µg/mL | 30.1 µg/mL | 29.8 µg/mL |
| O=C(N/N=C/c1c(Cl)cccc1Cl)c1ccc(C(F)(F)F)nc1Nc1cccc(C(F)(F)F)c1 |  | 38.8 | 8.09 | > 27.9 µM | 11.8 µM | 6.74 | > 29.2 | > 100 µM | 9 | 12.8 |  | 0.461 µM | 2.11 µM | 0.886 µM | 0.971 µM | 1.53 | 1.16 µM | 0.466 µM | 2.6 µM | 0.588 µM |
| O=C(O)C12CC3(C(=O)O)CC(C(=O)O)(CC(C(=O)O)(C1)C3=O)C2=O | > 100 | > 100 |  | > 100 µM | > 100 µM | > 100 | > 100 | > 100 µM | > 100 | > 100 |  |  |  |  |  |  |  |  |  |  |
| Nc1nc(N)c2cc(CNc3ccc(C(=O)NC(CC(=O)O)C(=O)O)c(Cl)c3)ccc2n1 (stereo not given) | > 500 | > 500 | > 500 | > 500 µM | > 500 µM | > 500 | > 500 | > 500 µM | > 500 |  | > 500 | 0.05 µM | 0.05 µM | > 500 µM |  | > 500 | 0.05 µM |  | > 500 µM |  |
| COC(=O)CCC1=C(CC(=O)OC)C(C)=N/C1=C\c1[nH]c(-c2ccc[nH]2)cc1OC | 9.56 | 11.5 | 20.6 | 25.3 µM | 16.3 µM | 19.6 | 15.1 |  | 21.6 | 12.6 | 2.15 | 1.36 µM | 5.63 µM | 5.61 µM | 3.55 µM | 3.29 | 3.25 µM |  | 6.49 µM | 2.48 µM |
| C[C@]12CC[C@@H]3c4ccc(O)c([N+](=O)[O-])c4CC[C@H]3[C@@H]1CC[C@@H]2NS(=O)(=O)c1cccc(Br)c1 | 4.21 | 4.17 | 3.24 |  | 3.96 µM | 8.53 | 3.13 | 2.94 µM | 3.93 | 4.28 | 2.03 | 1.92 µM | 1.55 µM |  | 1.8 µM | 2.9 | 1.68 µM | 1.47 µM | 1.91 µM | 1.9 µM |
| COC(=O)c1cc(/C=C/c2ccc(S(N)(=O)=O)cc2)ccc1O | > 100 | > 100 | 47.4 | > 100 µM |  | 52.9 | > 100 | > 100 µM | 56.2 | > 100 | 43.4 | 20 µM | 18.4 µM | 29.3 µM |  | 21.4 | 26.5 µM | 72.9 µM | 16.3 µM | 18.8 µM |

From PubChem BioAssay (NCI)
